pEC50: −log10 of the molar value.

Holding throughout (assay type): cell-based
For experiment [1], the system named is Trypanosoma cruzi amastigotes cultured in 3T3 fibroblast cells. The experiment is described as follows: Assay for growth inhibition of kinetoplastid parasite Trypanosoma cruzi (beta-galactosidase Tulahuen strain, CPRG readout). The settings on record: Trypanosoma cruzi, Fibroblast, T. cruzi amastigotes in 3T3 fibroblast cells; read-out: Buckner infectious T. cruzi EC50. Summed up:
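3T3 fibroblasts (1,000 cells/well) plated overnight, treated with compound in DMSO, then infected with 10,000 Lac-Z-expressing Tulahuen trypomastigotes. After 6 days, 0.6 mM CPRG with 0.6% NP-40 added for 2 h at room temperature; absorbance gives relative intracellular amastigote numbers. Benznidazole and nifurtimox serve as positive controls.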

For experiment [2], the system named is Leishmania donovani axenic amastigote. The experiment is described as follows: In vitro assay for growth inhibition of Leishmania donovani axenic amastigote (Cell TiterGlo luminescence). The settings on record: Leishmania donovani, L. donovani axenic amastigotes in vitro; read-out: L. donovani amastigotes EC50. Summed up: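 Compound-treated wells received 9600 axenic amastigotes in RPMI 1640-based medium at pH 5.5 (37 °C, 5% CO2). Growth measured as ATP luminescence (CellTiter-Glo) after 2-day incubation; DMSO and reference compounds served as controls.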
Background: ATP-based viability assays read luminescence as a measure of living cells.

Experiment [3] deals with L. donovani HU3 strain in mouse peritoneal macrophages. The experiment is described as follows: Assay for inhibition of parasitemia of Leishmania donovani in mouse macrophages (SYBR Green nuclei count, high-content imaging). The settings on record: Leishmania donovani, Peritoneal macrophage, L. donovani in mouse peritoneal macrophages; read-out: L. donovani in Mouse Macrophages EC50. From the text: Assay for Inhibition of Parasitemia of Leishmania donovani in Mouse Macrophages
The assay measures the increase in the parasite number in the assayed plate well using a DNA intercalating dye, SYBR Green I® dye (INVITROGEN) to stain Leishmania cell nuclei. L. donovani HU3 strain is propagated by infecting BALB/c mice through tail vein injection with 10^7 Leishmania parasites. Infected mice are allowed to develop infection during 9-11 weeks post-infection. During this time, the parasites accumulate in the infected mouse spleens to large numbers, and the infected mice serve as the source of parasites for the in vitro measurement of compound efficacies. To assay a compound for anti-leishmanial activity, peritoneal macrophages isolated from non-infected BALB/c mice are seeded into 384-well plates at density 2×10^4 macrophages per well in […] of medium (RPM11640, 10% fetal serum albumin, 10 mM HEPES, 1 mM sodium pyruvate, 1% Pen/Strep). Subsequently, the seeded plates are placed into an incubator set to maintain 37° C. temperature and atmosphere with 5% CO2.
The next day, Leishmania parasites are isolated from the spleens of mice infected for 9-11 weeks and 4×10^5 isolated parasites in […] of the above media are added to each plate well. Plates are then returned into incubators and infection is allowed to proceed for 24 hours. After the infection of macrophages is completed, […] of compounds of the invention in the above medium, which also contains 5% DMSO, are added to plate wells containing infected macrophages. At the same time control compounds (miltefosine and amphotericin B) and DMSO are added to plates to serve as the positive and negative controls, respectively. After the compound addition, the plates are returned into incubator and cells infected with parasites are cultured for 5 days. At the end of cultivation, […] of 8% paraformaldehyde is added to plate wells and incubated for 15 min at room temperature. Following the incubation, the paraformaldehyde from plate wells is aspirated, and […] of PBS containing 0.2% Triton X-100 is added to wells. After 15 min incubation, the solution is aspirated from wells again, and replaced with Sybr® Green Dye solution in PBS (1:125,000 dilution). Infected cells are imaged with Evotec Opera high-content microscope, and the number of parasites in well is determined by counting parasite nuclei visualized by staining with Sybr® Green dye.

The subject of experiment [4] is Trypanosoma brucei brucei (Lister 427) strain. The experiment is described as follows: Assay for growth inhibition against Trypanosoma brucei brucei (Cell TiterGlo ATP luminescence). Particulars: Trypanosoma brucei, T. brucei brucei (Lister 427); read-out: T. Brucei (HAT) EC50. In a few lines: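 Growth read-out is cellular ATP by CellTiter-Glo luminescence, measured 30 min after reagent addition, following 2-day incubation at 37 °C in CO2. Parasites (10,000/mL, HMI-9 plus 10% FBS and 10% serum plus) faced 10 threefold dilutions in duplicate; IC50 taken as 50% growth inhibition versus untreated.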

In general, pEC50 refers to −log10 of the EC50, conventionally taken in molar units. Consider `CCC(C)c1cnc2nn(-c3cc(NC(=O)N4CC(F)C4)ccc3F)cc2c1` (stereo not drawn) [Compound 25, N-{3-[5-(butan-2-yl)-2H-pyrazolo[3,4-b]pyridin-2-yl]-4-fluorophenyl}-3-fluoroazetidine-1-carboxamide], for which the pEC50 in experiment [1] is 7.77; in experiment [2], 7.68; in experiment [3], 7.33; in experiment [4], greater than 7.64.

Turning to `O=C(Nc1ccc(F)c(-n2cc3cc(-c4cnccn4)cnc3n2)c1)N1CC(F)C1` [Compound 294, 3-fluoro-N-{4-fluoro-3-[5-(pyrazin-2-yl)-2H-pyrazolo[3,4-b]pyridin-2-yl]phenyl}azetidine-1-carboxamide], the pEC50 in experiment [1] is 8.30; in experiment [2], 8.40; in experiment [3], 8.40; in experiment [4], 8.30.

Consider `O=C(Nc1ccc(F)c(-n2cc3cc(N4CCOCC4)cnc3n2)c1)N1CCC1` [Compound 137, N-{4-fluoro-3-[5-(morpholin-4-yl)-2H-pyrazolo[3,4-b]pyridin-2-yl]phenyl}azetidine-1-carboxamide], for which the pEC50 in experiment [1] was 8.29; in experiment [2] it was 8.06; in experiment [3], 8.22; in experiment [4], greater than 7.64.

With `CC(C)Cc1cnc2nn(-c3cc(NC(=O)N4CC(F)(F)C4)ccc3F)cc2c1` [Compound 8, 3,3-difluoro-N-(4-fluoro-3-(5-isobutyl-2H-pyrazolo[3,4-b]pyridin-2-yl)phenyl)azetidine-1-carboxamide], the pEC50 in experiment [1] was 8.35; in experiment [2], 8.11; in experiment [3], 8.48; in experiment [4], greater than 7.64.

As for `CC(C)c1cnc2nn(-c3cc(NC(=O)c4cnc(C5CC5)o4)ccc3F)cc2c1` [Compound 75, 2-cyclopropyl-N-{4-fluoro-3-[5-(propan-2-yl)-2H-pyrazolo[3,4-b]pyridin-2-yl]phenyl}-1,3-oxazole-5-carboxamide], the pEC50 in experiment [1] was 6.92; in experiment [2], 6.70; in experiment [3], 6.77; in experiment [4], 6.77.

With `CC(C)(C)Cc1cnc2nn(-c3cc(NC(=O)N4CC(F)(F)C4)ccc3F)cc2c1` [Compound 32, N-{3-[5-(2,2-dimethylpropyl)-2H-pyrazolo[3,4-b]pyridin-2-yl]-4-fluorophenyl}-3,3-difluoroazetidine-1-carboxamide], the pEC50 is 8.30 in experiment [1], 7.92 in experiment [2], 7.89 in experiment [3] and greater than 7.64 in experiment [4].

In the case of `O=C(Nc1ccc(F)c(-n2cc3cc(N4CC5(CSC5)C4)cnc3n2)c1)N1CC(F)C1` [Compound 239, 3-fluoro-N-[4-fluoro-3-(5-{2-thia-6-azaspiro[3.3]heptan-6-yl}-2H-pyrazolo[3,4-b]pyridin-2-yl)phenyl}azetidine-1-carboxamide], the pEC50 in experiment [1] is 8.00; in experiment [2] it was 5.75; in experiment [3], 8.05; in experiment [4] it was 8.30.

Take `O=C(Nc1ccc(F)c(-n2cc3cc(N4CC5C(C4)C5(F)F)cnc3n2)c1)N1CC(F)C1` (stereo not drawn) [Compound 204, N-[3-(5-{6,6-difluoro-3-azabicyclo[3.1.0]hexan-3-yl}-2H-pyrazolo[3,4-b]pyridin-2-yl)-4-fluorophenyl]-3-fluoroazetidine-1-carboxamide]: the pEC50 in experiment [1] was 8.70; in experiment [2] it was 7.13; in experiment [3] it was 8.40; in experiment [4], 8.30.

Turning to `Cc1ncc(C(=O)Nc2ccc(F)c(-n3cc4cc(C(C)C)cnc4n3)c2)o1` [Compound 83, N-{4-fluoro-3-[5-(propan-2-yl)-2H-pyrazolo[3,4-b]pyridin-2-yl]phenyl}-2-methyl-1,3-oxazole-5-carboxamide], the pEC50 was 8.14 in experiment [1], 7.85 in experiment [2], 8.15 in experiment [3] and greater than 7.64 in experiment [4].

For `Cc1nc(C)c(C(=O)Nc2ccc(F)c(-n3cc4cc(NC(=O)OC(C)C)cnc4n3)c2)o1` [Compound 159, propan-2-yl N-{2-[5-(dimethyl-1,3-oxazole-5-amido)-2-fluorophenyl}-2H-pyrazolo[3,4-b]pyridin-5-yl}carbamate], the negative-log EC50 (pEC50) in experiment [1] is 7.43; in experiment [2], 7.89; in experiment [3], 7.77; in experiment [4], greater than 7.64.

In the case of `O=C(Nc1ccc(F)c(-n2cc3cc(-c4ncccc4F)cnc3n2)c1)C1CC1` [Compound 332, N-{4-fluoro-3-[5-(3-fluoropyridin-2-yl)-2H-pyrazolo[3,4-b]pyridin-2-yl]phenyl}cyclopropanecarboxamide], the pEC50 in experiment [1] was 7.82; in experiment [2] it was 7.55; in experiment [3], 7.12; in experiment [4] it was 7.42.

On to `O=C(Nc1ccc(F)c(-n2cc3cc(N4CC(F)(F)C4)cnc3n2)c1)N1CC(F)C1` [Compound 298, N-{3-[5-(3,3-difluoroazetidin-1-yl)-2H-pyrazolo[3,4-b]pyridin-2-yl]-4-fluorophenyl}-3-fluoroazetidine-1-carboxamide], for which the negative logarithm of the EC50 (pEC50) in experiment [1] was 8.40; in experiment [2], 7.85; in experiment [3], 8.40; in experiment [4], 8.40.

In the case of `O=C(Nc1ccc(F)c(-n2cc3cc(N4CCC(C5COC5)CC4)cnc3n2)c1)N1CC(F)C1` [Compound 238, 3-fluoro-N-(4-fluoro-3-{5-[4-(oxetan-3-yl)piperidin-1-yl]-2H-pyrazolo[3,4-b]pyridin-2-yl}phenyl)azetidine-1-carboxamide], the pEC50 in experiment [1] was 7.48; in experiment [2], 7.60; in experiment [3] it was 7.49; in experiment [4], 8.30.

On to `CCCC(C)c1cnc2nn(-c3cc(NC(=O)N4CC[C@@H](F)C4)ccc3F)cc2c1` (stereo partly drawn) [Compound 48, (3R)-3-fluoro-N-{4-fluoro-3-[5-(pentan-2-yl)-2H-pyrazolo[3,4-b]pyridin-2-yl]phenyl}pyrrolidine-1-carboxamide], for which the pEC50 in experiment [1] is 6.54; in experiment [2], 6.46; in experiment [3], 6.48; in experiment [4], 7.30.

As for `Cc1nc(COC(C)(C)C)oc1C(=O)Nc1ccc(F)c(-n2cc3cc(C(C)C)cnc3n2)c1` [Compound 79, 2-[(tert-butoxy)methyl]-N-{4-fluoro-3-[5-(propan-2-yl)-2H-pyrazolo[3,4-b]pyridin-2-yl]phenyl}-4-methyl-1,3-oxazole-5-carboxamide], the pEC50 in experiment [1] is 6.85; in experiment [2], 5.52; in experiment [3], 5.62; in experiment [4] it was 6.46.

For the compound `O=C(Nc1ccc(F)c(-n2cc3cc(C4CCCCC4)cnc3n2)c1)N1CC(F)C1` [Compound 19, N-(3-{5-cyclohexyl-2H-pyrazolo[3,4-b]pyridin-2-yl}-4-fluorophenyl)-3-fluoroazetidine-1-carboxamide], the pEC50 in experiment [1] is 7.96; in experiment [2] it was 7.96; in experiment [3] it was 7.09; in experiment [4], greater than 7.64.

As for `CC(C)c1cnc2nn(-c3cc(NC(=O)C4CCCO4)ccc3F)cc2c1` (stereo not drawn) [Compound 88, N-{4-fluoro-3-[5-(propan-2-yl)-2H-pyrazolo[3,4-b]pyridin-2-yl]phenyl}oxolane-2-carboxamide], the negative-log EC50 (pEC50) in experiment [1] is 5.74; in experiment [2] it was 5.28; in experiment [3], 5.49; in experiment [4], 5.82.

With `O=C(Nc1ccc(F)c(-n2cc3cc(N4CC(C(F)(F)F)C4)cnc3n2)c1)N1CC(F)C1` [Compound 265, 3-fluoro-N-(4-fluoro-3-(5-(3-(trifluoromethyl)azetidin-1-yl)-2H-pyrazolo[3,4-b]pyridin-2-yl)phenyl)azetidine-1-carboxamide], the pEC50 was 8.70 in experiment [1], 8.52 in experiment [2], 8.40 in experiment [3] and 9.00 in experiment [4].

The values above are taken from patent US11384078B2, “5,6-fused-bicyclic compounds and compositions for the treatment of parasitic diseases” (NOVARTIS AG, priority 2017, dated 2022).
